Results taken from patent publication US10544102B2, “Benzazepine dicarboxamide compounds with secondary amide function” (Hoffmann-La Roche Inc., priority 2017, dated 2020).

How the values were obtained:
[1] = target: T1, human TLR8 (Homo sapiens, UniProt Q9NR97); assay: HEK-Blue human TLR8 cells NF-κB SEAP reporter assay; type: cell-based; conditions: stimulation for 20 hours, Quanti Blue 640 nm
T1 construct: host or cells: HEK-Blue human TLR8 cells (HEK293-derived reporter line)
T1 sequence (Q9NR97 27-1041): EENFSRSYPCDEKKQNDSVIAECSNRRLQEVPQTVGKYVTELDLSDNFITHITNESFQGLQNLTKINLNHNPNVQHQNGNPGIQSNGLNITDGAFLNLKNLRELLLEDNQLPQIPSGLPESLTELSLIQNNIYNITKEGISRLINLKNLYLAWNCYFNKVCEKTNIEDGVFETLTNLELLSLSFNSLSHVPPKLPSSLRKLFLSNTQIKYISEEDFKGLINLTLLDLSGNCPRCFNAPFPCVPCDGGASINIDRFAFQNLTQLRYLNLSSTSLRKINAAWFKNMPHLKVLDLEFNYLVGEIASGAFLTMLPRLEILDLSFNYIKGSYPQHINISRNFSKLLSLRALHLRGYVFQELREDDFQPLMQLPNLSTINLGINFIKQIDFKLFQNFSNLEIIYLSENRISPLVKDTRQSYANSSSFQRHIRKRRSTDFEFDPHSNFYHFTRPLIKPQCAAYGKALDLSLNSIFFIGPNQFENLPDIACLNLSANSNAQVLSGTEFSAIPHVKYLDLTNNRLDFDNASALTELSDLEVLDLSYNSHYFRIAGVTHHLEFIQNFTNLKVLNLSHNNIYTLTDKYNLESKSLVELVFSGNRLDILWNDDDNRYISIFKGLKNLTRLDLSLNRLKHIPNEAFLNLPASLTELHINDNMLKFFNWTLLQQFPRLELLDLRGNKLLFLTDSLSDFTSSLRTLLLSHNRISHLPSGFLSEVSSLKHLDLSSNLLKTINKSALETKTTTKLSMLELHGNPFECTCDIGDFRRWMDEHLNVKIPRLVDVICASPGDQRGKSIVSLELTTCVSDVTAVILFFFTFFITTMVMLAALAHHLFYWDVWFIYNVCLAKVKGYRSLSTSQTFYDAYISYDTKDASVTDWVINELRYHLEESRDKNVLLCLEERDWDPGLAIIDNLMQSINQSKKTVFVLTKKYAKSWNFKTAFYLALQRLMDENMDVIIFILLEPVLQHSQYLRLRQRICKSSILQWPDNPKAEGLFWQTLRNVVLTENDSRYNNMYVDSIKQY
Description: (§1) For TLR8 and TLR7 activity testing, HEK-Blue human TLR8 or TLR7 cells (Invivogen, San Diego, Calif., USA) are used, respectively. These cells are designed for studying the stimulation of human TLR8 or TLR7 by monitoring the activation of NF-κB. A SEAP (secreted embryonic alkaline phosphatase) reporter gene is placed under the control of the IFN-b minimal promoter fused to five NF-κB and AP-1-binding sites. Therefore the reporter expression is regulated by the NF-κB promoter upon stimulation of human TLR8 or TLR7 for 20 hours. The cell culture supernatant SEAP reporter activity was determined using Quanti Blue kit (Invivogen, San Diego, Calif., USA) at a wavelength of 640 nm, a detection medium that turns purple/blue in the presence of alkaline phosphatase. EC50 values were determined using Activity Base analysis (ID Business Solution, Limited).

[2] = target: T2, human TLR7 (Homo sapiens, UniProt Q9NYK1); assay: HEK-Blue human TLR7 cells NF-κB SEAP reporter assay; type: cell-based; conditions: stimulation for 20 hours, Quanti Blue 640 nm
T2 construct: host or cells: HEK-Blue human TLR7 cells (HEK293-derived reporter line)
T2 sequence (Q9NYK1 27-1049): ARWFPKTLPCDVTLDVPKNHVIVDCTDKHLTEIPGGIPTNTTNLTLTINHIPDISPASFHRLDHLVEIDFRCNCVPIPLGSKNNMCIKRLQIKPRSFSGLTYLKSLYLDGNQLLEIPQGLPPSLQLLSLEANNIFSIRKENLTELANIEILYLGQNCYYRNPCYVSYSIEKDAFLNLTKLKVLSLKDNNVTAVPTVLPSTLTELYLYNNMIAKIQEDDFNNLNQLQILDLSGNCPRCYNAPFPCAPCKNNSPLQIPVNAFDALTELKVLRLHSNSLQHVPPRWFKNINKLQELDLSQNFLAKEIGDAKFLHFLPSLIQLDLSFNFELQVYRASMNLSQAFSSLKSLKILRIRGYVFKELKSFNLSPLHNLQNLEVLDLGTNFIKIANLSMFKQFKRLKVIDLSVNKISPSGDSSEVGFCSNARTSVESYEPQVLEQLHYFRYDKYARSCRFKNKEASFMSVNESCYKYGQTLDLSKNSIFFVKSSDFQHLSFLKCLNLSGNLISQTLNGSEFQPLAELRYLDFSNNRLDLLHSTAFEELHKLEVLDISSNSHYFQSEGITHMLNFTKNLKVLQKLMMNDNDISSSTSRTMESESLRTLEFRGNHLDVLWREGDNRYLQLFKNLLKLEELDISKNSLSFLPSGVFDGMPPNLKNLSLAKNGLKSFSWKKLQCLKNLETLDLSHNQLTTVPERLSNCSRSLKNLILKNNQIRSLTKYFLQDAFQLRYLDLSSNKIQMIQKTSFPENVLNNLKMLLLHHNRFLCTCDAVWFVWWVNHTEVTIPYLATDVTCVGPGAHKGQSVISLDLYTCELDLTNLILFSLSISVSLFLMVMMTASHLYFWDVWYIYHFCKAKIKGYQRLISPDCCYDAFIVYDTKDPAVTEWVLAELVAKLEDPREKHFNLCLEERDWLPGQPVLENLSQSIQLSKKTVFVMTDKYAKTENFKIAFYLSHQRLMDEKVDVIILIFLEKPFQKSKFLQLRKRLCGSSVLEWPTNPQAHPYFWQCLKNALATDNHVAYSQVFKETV
Description: as §1

Structure (SMILES): CCCN(CCC)C(=O)C1=Cc2ccc(C(=O)N[C@H]3C[C@@H]3c3ccccc3)cc2N=C(N)C1 [Example 1, 2-Amino-N8-[(1S,2R)-2-phenylcyclopropyl]-N4,N4-dipropyl-3H-1-benzazepine-4,8-dicarboxamide]
- EC50 [1]: 2 nM
- EC50 [2]: 7900 nM

Structure (SMILES): CCCN(CCC)C(=O)C1=Cc2ccc(C(=O)NC3CCN(c4ccccc4)CC3)cc2N=C(N)C1 [Example 2, 2-Amino-N8-(1-phenyl-4-piperidyl)-N4,N4-dipropyl-3H-1-benzazepine-4,8-dicarboxamide]
- EC50 [1]: 2 nM
- EC50 [2]: 10000 nM

Structure (SMILES): CCCN(CCC)C(=O)C1=Cc2ccc(C(=O)NC3CN(c4ccccc4)C3)cc2N=C(N)C1 [Example 3, 2-Amino-N8-(1-phenylazetidin-3-yl)-N4,N4-dipropyl-3H-1-benzazepine-4,8-dicarboxamide]
- EC50 [1]: 4 nM
- EC50 [2]: > 100000 nM

Structure (SMILES): CCCN(CCC)C(=O)C1=Cc2ccc(C(=O)NC3CCCCC3)cc2N=C(N)C1 [Example 4, 2-Amino-N8-cyclohexyl-N4,N4-dipropyl-3H-1-benzazepine-4,8-dicarboxamide]
- EC50 [1]: 4 nM
- EC50 [2]: 34000 nM

Structure (SMILES): CCCN(CCC)C(=O)C1=Cc2ccc(C(=O)NC3(c4ccccc4)CC3)cc2N=C(N)C1 [Example 5, 2-Amino-N8-(1-phenylcyclopropyl)-N4,N4-dipropyl-3H-1-benzazepine-4,8-dicarboxamide]
- EC50 [1]: 6 nM
- EC50 [2]: > 100000 nM

Structure (SMILES): CCCN(CCC)C(=O)C1=Cc2ccc(C(=O)NC3(c4ccccc4)CCC3)cc2N=C(N)C1 [Example 6, 2-Amino-N8-(1-phenylcyclobutyl)-N4,N4-dipropyl-3H-1-benzazepine-4,8-dicarboxamide]
- EC50 [1]: 7 nM
- EC50 [2]: 13000 nM

Structure (SMILES): CCCN(CCC)C(=O)C1=Cc2ccc(C(=O)N[C@@H](C)c3ccccc3)cc2N=C(N)C1 [Example 7, 2-Amino-N8-[(1S)-1-phenylethyl]-N4,N4-dipropyl-3H-1-benzazepine-4,8-dicarboxamide]
- EC50 [1]: 10 nM
- EC50 [2]: 17000 nM

Structure (SMILES): CCCN(CCC)C(=O)C1=Cc2ccc(C(=O)NCc3ccon3)cc2N=C(N)C1 [Example 8, 2-Amino-N8-(isoxazol-3-ylmethyl)-N4,N4-dipropyl-3H-1-benzazepine-4,8-dicarboxamide]
- EC50 [1]: 12 nM
- EC50 [2]: 40000 nM

Structure (SMILES): CCCN(CCC)C(=O)C1=Cc2ccc(C(=O)NCc3cncs3)cc2N=C(N)C1 [Example 9, 2-Amino-N4,N4-dipropyl-N8-(thiazol-5-ylmethyl)-3H-1-benzazepine-4,8-dicarboxamide]
- EC50 [1]: 24 nM
- EC50 [2]: 52000 nM

Structure (SMILES): CCCN(CCC)C(=O)C1=Cc2ccc(C(=O)NC(c3ccccc3)c3ccccc3)cc2N=C(N)C1 [Example 10, 2-Amino-N8-benzhydryl-N4,N4-dipropyl-3H-1-benzazepine-4,8-dicarboxamide]
- EC50 [1]: 11 nM
- EC50 [2]: > 100000 nM

Structure (SMILES): CCCN(CCC)C(=O)C1=Cc2ccc(C(=O)NC3(c4ccccc4)CCOCC3)cc2N=C(N)C1 [Example 11, 2-Amino-N8-(4-phenyltetrahydropyran-4-yl)-N4,N4-dipropyl-3H-1-benzazepine-4,8-dicarboxamide]
- EC50 [1]: 29 nM
- EC50 [2]: > 100000 nM

Structure (SMILES): CCCN(CCC)C(=O)C1=Cc2ccc(C(=O)NCc3nccs3)cc2N=C(N)C1 [Example 12, 2-Amino-N4,N4-dipropyl-N8-(thiazol-2-ylmethyl)-3H-1-benzazepine-4,8-dicarboxamide]
- EC50 [1]: 13 nM
- EC50 [2]: 42000 nM

Structure (SMILES): CCCN(CCC)C(=O)C1=Cc2ccc(C(=O)NC(C)(C)c3ccccc3)cc2N=C(N)C1 [Example 13, 2-Amino-N8-(1-methyl-1-phenyl-ethyl)-N4,N4-dipropyl-3H-1-benzazepine-4,8-dicarboxamide]
- EC50 [1]: 11 nM
- EC50 [2]: 14000 nM

Structure (SMILES): CCCN(CCC)C(=O)C1=Cc2ccc(C(=O)N[C@H](C)c3ccccc3)cc2N=C(N)C1 [Example 14, 2-Amino-N8-[(1R)-1-phenylethyl]-N4,N4-dipropyl-3H-1-benzazepine-4,8-dicarboxamide]
- EC50 [1]: 12 nM
- EC50 [2]: 35000 nM

Structure (SMILES): CCCN(CCC)C(=O)C1=Cc2ccc(C(=O)NC3CCCC3)cc2N=C(N)C1 [Example 15, 2-Amino-N8-cyclopentyl-N4,N4-dipropyl-3H-1-benzazepine-4,8-dicarboxamide]
- EC50 [1]: 14 nM
- EC50 [2]: > 100000 nM

Structure (SMILES): CCCN(CCC)C(=O)C1=Cc2ccc(C(=O)NC(C)(C)C)cc2N=C(N)C1 [Example 16, 2-Amino-N8-tert-butyl-N4,N4-dipropyl-3H-1-benzazepine-4,8-dicarboxamide]
- EC50 [1]: 28 nM
- EC50 [2]: 50000 nM

Structure (SMILES): CCCN(CCC)C(=O)C1=Cc2ccc(C(=O)NC3CCC3)cc2N=C(N)C1 [Example 17, 2-Amino-N8-cyclobutyl-N4,N4-dipropyl-3H-1-benzazepine-4,8-dicarboxamide]
- EC50 [1]: 25 nM
- EC50 [2]: > 100000 nM

Structure (SMILES): CCCN(CCC)C(=O)C1=Cc2ccc(C(=O)NCc3ccccc3)cc2N=C(N)C1 [Example 18, 2-Amino-N8-benzyl-N4,N4-dipropyl-3H-1-benzazepine-4,8-dicarboxamide]
- EC50 [1]: 26 nM
- EC50 [2]: 25000 nM

Structure (SMILES): CCCN(CCC)C(=O)C1=Cc2ccc(C(=O)NCc3cccnc3)cc2N=C(N)C1 [Example 19, 2-Amino-N4,N4-dipropyl-N8-(3-pyridylmethyl)-3H-1-benzazepine-4,8-dicarboxamide]
- EC50 [1]: 25 nM
- EC50 [2]: 49000 nM

Structure (SMILES): CCCN(CCC)C(=O)C1=Cc2ccc(C(=O)NCCc3cccnc3)cc2N=C(N)C1 [Example 20, 2-Amino-N4,N4-dipropyl-N8-[2-(3-pyridyl)ethyl]-3H-1-benzazepine-4,8-dicarboxamide]
- EC50 [1]: 30 nM
- EC50 [2]: > 100000 nM

Structure (SMILES): CCCN(CCC)C(=O)C1=Cc2ccc(C(=O)NCCCc3cccnc3)cc2N=C(N)C1 [Example 21, 2-Amino-N4,N4-dipropyl-N8-[3-(3-pyridyl)propyl]-3H-1-benzazepine-4,8-dicarboxamide]
- EC50 [1]: 29 nM
- EC50 [2]: > 100000 nM

Structure (SMILES): CCCN(CC1CC1)C(=O)C1=Cc2ccc(C(=O)NC3C[C@H]3c3ccccc3)cc2N=C(N)C1 (stereo partly drawn) [Example 22, 2-Amino-N4-(cyclopropylmethyl)-N8-[(2S)-2-phenylcyclopropyl]-N4-propyl-3H-1-benzazepine-4,8-dicarboxamide]
- EC50 [1]: 5 nM
- EC50 [2]: 14000 nM

Structure (SMILES): CCCN(CCC)C(=O)C1=Cc2ccc(C(=O)NC3CCCN(c4ccccc4)C3)cc2N=C(N)C1 (stereo not shown) [Example 23, 2-Amino-N8-(1-phenyl-3-piperidyl)-N4,N4-dipropyl-3H-1-benzazepine-4,8-dicarboxamide]
- EC50 [1]: 10 nM
- EC50 [2]: > 100000 nM
